Test results reported in US11185517B2, “Pharmaceutical composition for treatment or remission of chronic myelogenous leukemia” (Delta-Fly Pharma, Inc., priority 2016, dated 2021).

System: patient with chronic myelogenous leukemia
Assay: Administration of Tasigna (nilotinib) to the patient with chronic myelogenous leukemia
Type: in vivo, human
Settings: CML patient
Procedure: To a patient with chronic myelogenous leukemia, Tasigna (registered trademark) (nilotinib) was administered from Jan. 9, 2014.
The initially administered Tasigna (registered trademark) (nilotinib) had been developed as a therapeutic agent for the transitional stage of chronic myelogenous leukemia from the chronic stage to the acute stage.

## Cc1cn(-c2cc(NC(=O)c3ccc(C)c(Nc4nccc(-c5cccnc5)n4)c3)cc(C(F)(F)F)c2)cn1 [Tasigna, nilotinib]
Considered at the acute stage
  therapeutic effect: no therapeutic effect
Administration stopped after 5 days
  adverse effects: strong adverse effects were observed
